Results published in ChEMBL document CHEMBL4316596, “Antimicrobial Peptides with High Proteolytic Resistance for Combating Gram-Negative Bacteria” (J Med Chem, 2019).
≈ marks a conversion by molar mass, not a printed value. Calls of active or inactive are those of the source. The rule behind the calls is not given here.

Tests used:
[1] = Antimicrobial activity against Salmonella pullorum C7913 after 24 hrs by NCCLS-protocol based assay; format: functional, Salmonella enterica subsp. enterica serovar Pullorum; conditions: Salmonella enterica, C7913, 24 h
[2] = system: Erythrocyte; assay: Hemolytic activity against human RBC after 1 hr; format: ADME, cell-based
[3] = system: Salmonella typhimurium; assay: Bactericidal activity against Salmonella typhimurium ATCC 14028 incubated for 4 hrs followed by culture spread on agar plates and cultured overnight; format: functional, Salmonella enterica subsp. enterica serovar Typhimurium; conditions: Salmonella enterica, ATCC 14028, 4 h; read-out: MBC>99.9
[4] = system: Escherichia coli; assay: Antimicrobial activity against Escherichia coli K99 after 24 hrs by NCCLS-protocol based assay; format: functional; conditions: K99, 24 h
[5] = system: Escherichia coli; assay: Bactericidal activity against Escherichia coli ATCC 25922 incubated for 4 hrs followed by culture spread on agar plates and cultured overnight in presence of 0.25 mg/ml trypsin; format: functional; conditions: ATCC 25922, 4 h, read-out: MBC>99.9
[6] = system: Escherichia coli; assay: Bactericidal activity against Escherichia coli ATCC 25922 incubated for 4 hrs followed by culture spread on agar plates and cultured overnight in presence of NaCl; format: functional; conditions: ATCC 25922, 4 h, read-out: MBC>99.9
[7] = system: Pseudomonas aeruginosa; assay: Bactericidal activity against Pseudomonas aeruginosa ATCC 27853 incubated for 4 hrs followed by culture spread on agar plates and cultured overnight; format: functional; conditions: ATCC 27853, 4 h, read-out: MBC>99.9
[8] = system: Escherichia coli; assay: Bactericidal activity against Escherichia coli ATCC 25922 incubated for 4 hrs followed by culture spread on agar plates and cultured overnight in presence of 2 mg/ml chymotrypsin; format: functional; conditions: ATCC 25922, 4 h, read-out: MBC>99.9
[9] = system: Salmonella typhimurium; assay: Antimicrobial activity against Salmonella typhimurium C7731 after 24 hrs by NCCLS-protocol based assay; format: functional, Salmonella enterica subsp. enterica serovar Typhimurium; conditions: Salmonella enterica, C7731, 24 h
[10] = system: Escherichia coli; assay: Bactericidal activity against Escherichia coli ATCC 25922 incubated for 4 hrs followed by culture spread on agar plates and cultured overnight in presence of 0.125 mg/ml chymotrypsin; format: functional; conditions: ATCC 25922, 4 h, read-out: MBC>99.9
[11] = system: Escherichia coli; assay: Bactericidal activity against Escherichia coli K88 incubated for 4 hrs followed by culture spread on agar plates and cultured overnight; format: functional; conditions: K88, 4 h, read-out: MBC>99.9
[12] = system: Escherichia coli; assay: Bactericidal activity against Escherichia coli ATCC 25922 incubated for 4 hrs followed by culture spread on agar plates and cultured overnight in presence of MgCl2; format: functional; conditions: ATCC 25922, 4 h, read-out: MBC>99.9
[13] = Bactericidal activity against Salmonella pullorum C7913 incubated for 4 hrs followed by culture spread on agar plates and cultured overnight; format: functional, Salmonella enterica subsp. enterica serovar Pullorum; conditions: Salmonella enterica, C7913, 4 h; read-out: MBC>99.9
[14] = Selectivity ratio of IC50 for pig IPECJ2 cells to geometric mean of the peptide MBC for bacteria
[15] = system: Escherichia coli; assay: Bactericidal activity against Escherichia coli ATCC 25922 incubated for 4 hrs followed by culture spread on agar plates and cultured overnight in presence of KCl; format: functional; conditions: ATCC 25922, 4 h, read-out: MBC>99.9
[16] = system: Escherichia coli; assay: Bactericidal activity against Escherichia coli ATCC 25922 incubated for 4 hrs followed by culture spread on agar plates and cultured overnight in presence of ZnCl2; format: functional; conditions: ATCC 25922, 4 h, read-out: MBC>99.9
[17] = system: Escherichia coli; assay: Bactericidal activity against Escherichia coli ATCC 25922 incubated for 4 hrs followed by culture spread on agar plates and cultured overnight; format: functional; conditions: ATCC 25922, 4 h, read-out: MBC>99.9
[18] = system: Escherichia coli; assay: Bactericidal activity against Escherichia coli UB1005 incubated for 4 hrs followed by culture spread on agar plates and cultured overnight; format: functional; conditions: UB1005, 4 h, read-out: MBC>99.9
[19] = system: Escherichia coli; assay: Bactericidal activity against Escherichia coli ATCC 25922 incubated for 4 hrs followed by culture spread on agar plates and cultured overnight in presence of 0.25 mg/ml chymotrypsin; format: functional; conditions: ATCC 25922, 4 h, read-out: MBC>99.9
[20] = system: Pseudomonas aeruginosa; assay: Antimicrobial activity against Pseudomonas aeruginosa PAO1 after 24 hrs by NCCLS-protocol based assay; format: functional; conditions: PAO1, 24 h
[21] = system: Klebsiella pneumoniae; assay: Antimicrobial activity against Klebsiella pneumoniae after 24 hrs by NCCLS-protocol based assay; format: functional
[22] = Selectivity ratio of IC50 for mouse RAW264.7 cells to geometric mean of the peptide MBC for bacteria
[23] = system: Pseudomonas aeruginosa; assay: Antimicrobial activity against Pseudomonas aeruginosa 26305 clinical isolates after 24 hrs by NCCLS-protocol based assay; format: functional; conditions: Pseudomonas aeruginosa, 26305, 24 h
[24] = system: Pseudomonas aeruginosa; assay: Bactericidal activity against Pseudomonas aeruginosa CICC 21630 clinical isolates incubated for 4 hrs followed by culture spread on agar plates and cultured overnight; format: functional; conditions: CICC 21630, 4 h, read-out: MBC>99.9
[25] = system: Pseudomonas aeruginosa; assay: Antimicrobial activity against Pseudomonas aeruginosa CICC 21630 clinical isolates after 24 hrs by NCCLS-protocol based assay; format: functional; conditions: CICC 21630, 24 h
[26] = system: Escherichia coli; assay: Bactericidal activity against Escherichia coli ATCC 25922 incubated for 4 hrs followed by culture spread on agar plates and cultured overnight in presence of CaCl2; format: functional; conditions: ATCC 25922, 4 h, read-out: MBC>99.9
[27] = Selectivity ratio of HC10 for human RBC to geometric mean of the peptide MBC for bacteria
[28] = system: Acinetobacter baumannii; assay: Antimicrobial activity against Acinetobacter baumannii after 24 hrs by NCCLS-protocol based assay; format: functional
[29] = system: RAW264.7; assay: Cytotoxicity against mouse RAW264.7 cells assessed as cell death after 18 to 24 hrs by MTT assay; format: cell-based
[30] = system: Salmonella typhimurium; assay: Antimicrobial activity against Salmonella typhimurium ATCC 14028 after 24 hrs by NCCLS-protocol based assay; format: functional, Salmonella enterica subsp. enterica serovar Typhimurium; conditions: Salmonella enterica, ATCC 14028, 24 h
[31] = system: Escherichia coli; assay: Bactericidal activity against Escherichia coli 078 incubated for 4 hrs followed by culture spread on agar plates and cultured overnight; format: functional; conditions: Escherichia coli, 078, 4 h; read-out: MBC>99.9
[32] = system: Escherichia coli; assay: Bactericidal activity against Escherichia coli ATCC 25922 incubated for 4 hrs followed by culture spread on agar plates and cultured overnight in presence of 12.5% serum albumin; format: functional; conditions: ATCC 25922, 4 h, read-out: MBC>99.9
[33] = system: Pseudomonas aeruginosa; assay: Bactericidal activity against Pseudomonas aeruginosa 25349 clinical isolates incubated for 4 hrs followed by culture spread on agar plates and cultured overnight; format: functional; conditions: Pseudomonas aeruginosa, 25349, 4 h; read-out: MBC>99.9
[34] = Cytotoxicity against IPECJ2 cells assessed as cell death after 18 to 24 hrs by MTT assay; format: cell-based; conditions: Sus scrofa, IPEC-J2
[35] = system: Escherichia coli; assay: Bactericidal activity against Escherichia coli ATCC 25922 incubated for 4 hrs followed by culture spread on agar plates and cultured overnight in presence of 4 mg/ml pepsin; format: functional, organism-based
[36] = biological target: Trypsin (Homo sapiens, UniProt P07477+P07478+P35030); assay: Stability of the compound assessed as trypsin (unknown origin)-mediated compound hydrolysis after 8 hrs by SDS-PAGE analysis; format: ADME, protein assay
[37] = Stability of the compound assessed as pepsin (unknown origin)-mediated compound hydrolysis after 8 hrs by SDS-PAGE analysis; format: ADME; conditions: human

Compound	MIC95 [1] [µM]	HC10 [2] [µM]	MBC [3] [µM]	MIC95 [4] [µM]	MBC [5] [µM]	MBC [6] [µM]	MBC [7] [µM]	MBC [8] [µM]	MIC95 [9] [µM]	MBC [10] [µM]	MBC [11] [µM]	MBC [12] [µM]	MBC [13] [µM]	Ratio [14]	MBC [15] [µM]	MBC [16] [µM]	MBC [17] [µM]	MBC [18] [µM]	MBC [19] [µM]	MIC95 [20] [µM]	also measured
CC[C@H](C)[C@H](NC(=O)CN)C(=O)NCC(=O)N[C@@H](C)C(=O)N[C@H](C(=O)N[C@@H](CC(C)C)C(=O)N[C@@H](CCCCN)C(=O)N[C@H](C(=O)N[C@@H](CC(C)C)C(=O)N[C@H](C(=O)N[C@H](C(=O)NCC(=O)N[C@@H](CC(C)C)C(=O)N1CCC[C@H]1C(=O)N[C@@H](C)C(=O)N[C@@H](CC(C)C)C(=O)N[C@H](C(=O)N[C@@H](CO)C(=O)N[C@@H](Cc1c[nH]c2ccccc12)C(=O)N[C@H](C(=O)N[C@@H](CCCCN)C(=O)N[C@@H](CCCNC(=N)N)C(=O)N[C@@H](CCCCN)C(=O)N[C@@H](CCCNC(=N)N)C(=O)N[C@@H](CCC(N)=O)C(=O)N[C@@H](CCC(N)=O)C(N)=O)[C@@H](C)CC)[C@@H](C)CC)[C@@H](C)O)[C@@H](C)O)C(C)C)C(C)C [MELITTIN]	2 (≈ 5.69 µg/mL)	2	2 (≈ 5.69 µg/mL)	2 (≈ 5.69 µg/mL)	2	4	4 (≈ 11.4 µg/mL)	> 64	1 (≈ 2.85 µg/mL)	2	1 (≈ 2.85 µg/mL)	4	4 (≈ 11.4 µg/mL)	1.31	2	2	2 (≈ 5.69 µg/mL)	2 (≈ 5.69 µg/mL)	4	2 (≈ 5.69 µg/mL)	MIC95 [21]: 2 µM (≈ 5.69 µg/mL); Ratio [22]: 0.96; MIC95 [23]: 2 µM (≈ 5.69 µg/mL); MBC [24]: 4 µM (≈ 11.4 µg/mL); MIC95 [25]: 4 µM (≈ 11.4 µg/mL); MBC [26]: 8 µM; Ratio [27]: 0.92; MIC95 [28]: 1 µM (≈ 2.85 µg/mL); IC50 [29]: 2.09 µM; MIC95 [30]: 1 µM (≈ 2.85 µg/mL); MBC [31]: 1 µM (≈ 2.85 µg/mL); MBC [32]: 32 µM; MBC [33]: 4 µM (≈ 11.4 µg/mL)
H-IKPIIKPIIKPIIKPIIKPIIKPIIKPI-NH2	64	> 128	> 64	2	16	> 128	> 64	16	64	16	2	64	> 64	9.46	32	32	16	4	16	> 64	IC50 [34]: 345 µM; Activity [35]: inactive; Stability [36]: Stable; Stability [37]: Unstable; MIC95 [21]: 16 µM; Ratio [22]: 75.44; MIC95 [23]: > 64 µM; MBC [24]: > 64 µM; MIC95 [25]: > 64 µM; MBC [26]: > 128 µM; Ratio [27]: 7.03; MIC95 [28]: 2 µM; IC50 [29]: 2750 µM; MIC95 [30]: 64 µM; MBC [31]: 16 µM; MBC [32]: > 128 µM; MBC [33]: > 64 µM
